We go through 44 compounds from patent publication US20220098203A1 (priority 2018, published 2022).

For one test, the target named is T1, MAT2A homodimer (Homo sapiens, UniProt P31153).
T1 construct: inferred from the Ni sepharose purification and imidazole elution; made in house; host or cells: SF9 insect cells, recombinant baculovirus (Bac to Bac, pFASTBAC1)
T1 sequence (P31153 whole entry): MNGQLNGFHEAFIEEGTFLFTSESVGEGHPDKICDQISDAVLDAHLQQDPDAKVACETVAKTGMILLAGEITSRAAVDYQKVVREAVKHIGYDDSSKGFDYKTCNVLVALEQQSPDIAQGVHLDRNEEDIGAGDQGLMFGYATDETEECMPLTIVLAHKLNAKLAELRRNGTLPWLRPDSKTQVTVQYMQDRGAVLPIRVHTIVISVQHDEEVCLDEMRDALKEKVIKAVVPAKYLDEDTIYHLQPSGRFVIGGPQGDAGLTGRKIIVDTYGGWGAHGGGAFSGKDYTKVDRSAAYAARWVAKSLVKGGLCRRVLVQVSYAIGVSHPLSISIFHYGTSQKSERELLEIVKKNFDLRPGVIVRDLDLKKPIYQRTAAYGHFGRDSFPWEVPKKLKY
Nature of the test: MAT2A biochemical assay (liberated phosphate, PiColorLock Gold). To be noted: Table 5a; MAT2A biochemical assay; read-out: Enzyme Inhibition. How it is done: Mat2A protein was expressed by recombinant baculovirus in SF9 infected cells using the Bac to Bac system cloned into the pFASTBAC1 vector (Invitrogen, Carlsbad, Calif.). Recombinant MAT2A was isolated from the cell lysate of 150 g of infected cells using HP Ni sepharose column chromatography. Recombinant MAT2A homodimer was eluted with 250 and 500 mM imidazole, and fractions containing MAT2A were identified by sodium dodecyl sulfate polyacrylamide gel electrophoresis and pooled.
Test compound was prepared in 100% dimethyl sulfoxide (DMSO) at 50× the desired final concentration. A 1 μL volume of compound dilution was added to 40 μL of enzyme dilution and the mixture was allowed to equilibrate for 60 minutes at 25° C. The enzymatic assay was initiated by the addition of 10 μL of substrate mix (500 μM ATP, pH 7.0, 400 μM L-methionine in 1× assay buffer), and the mixture was incubated for a further 60 minutes at 25° C. The reaction was halted and the liberated phosphate released by the enzyme in stoichiometric amounts by the production of S-adenosyl methionine (SAM) was measured using the PiColorLock Gold kit (Innova Biosciences, UK). Absolute product amounts were determined by comparison to a standard curve of potassium phosphate buffer, pH 8.0.
In the case of `CCOc1ccc2c(n1)N(c1ccc(OC(F)F)cc1)C(=O)N(c1ccnc(OC)c1)C2` [Example 111, 1-(4-(difluoromethoxy)phenyl)-7-ethoxy-3-(2-methoxypyridin-4-yl)-3,4-dihydropyrido[2,3-d]pyrimidin-2(1H)-one], the IC50 is under 0.1 µM.
On the same count and under the same terms, then `CCOc1ccc2c(n1)N(c1ccc(OC)cc1)C(=O)N(c1ccc(C#N)cc1)C2` [Example 116, 4-(7-ethoxy-1-(4-methoxyphenyl)-2-oxo-1,2-dihydropyrido[2,3-d]pyrimidin-3(4H)-yl)benzonitrile], with 1 to 10 µM.
Same read-out and setting: then `CCOc1ccc2c(n1)N(c1ccc(OC)cc1)C(=O)N(c1ccc(F)cc1)C2` [Example 117, 7-ethoxy-3-(4-fluorophenyl)-1-(4-methoxyphenyl)-3,4-dihydropyrido[2,3-d]pyrimidin-2(1H)-one], with 0.1 to 1 µM; and `CCOc1ccc2c(n1)N(c1ccc(OC)cc1)C(=O)N(c1ccc(NC)cc1)C2` [Example 121, 7-ethoxy-1-(4-methoxyphenyl)-3-(4-(methylamino)phenyl)-3,4-dihydropyrido[2,3-d]pyrimidin-2(1H)-one], with 1 to 10 µM.
On to `CCOc1ccc2c(n1)N(c1ccc(OC)cc1)C(=O)N(c1ccc(C(=O)NC)cc1)C2` [Example 126, 4-(7-ethoxy-1-(4-methoxyphenyl)-2-oxo-1,2-dihydropyrido[2,3-d]pyrimidin-3(4H)-yl)-N-methylbenzamide], for which the IC50 was in the range of 0.1 to 1 µM.
With `CCOc1ccc2c(n1)N(c1ccc(OC)cc1)C(=O)N(c1cncs1)C2` [Example 127, ethoxy-1-(4-methoxyphenyl)-3-(thiazol-5-yl)-3,4-dihydropyrido[2,3-d]pyrimidin-2(1H)-one], the IC50 lay within 0.1 to 1 µM.
Turning to `CCOc1ccc2c(n1)N(c1cnc(C(F)(F)F)nc1)C(=O)N(c1ccc3nn(C)cc3c1)C2` [Example 148, 7-ethoxy-3-(2-methyl-2H-indazol-5-yl)-1-(2-(trifluoromethyl)pyrimidin-5-yl)-3,4-dihydropyrido[2,3-d]pyrimidin-2(1H)-one], the IC50 lay in the range of 0.1 to 1 µM.
Turning to `CCOc1ccc2c(n1)N(c1ccc(C(F)(F)F)nc1)C(=O)N(c1ccc3nn(C)cc3c1)C2` [Example 150], the IC50 is under 0.1 µM.
On the same count and under the same terms, then `CCOc1ccc2c(n1)N(c1ccc(C)nc1)C(=O)N(c1ccc3nn(C)cc3c1)C2` [Example 151, 7-ethoxy-3-(2-methyl-2H-indazol-5-yl)-1-(6-methylpyridin-3-yl)-3,4-dihydropyrido[2,3-d]pyrimidin-2(1H)-one], with 0.1 to 1 µM; and `COc1ccc(N2C(=O)N(c3ccc4nn(C)cc4c3)Cc3ccc(N4CCOCC4)nc32)cc1` [Example 157, 1-(4-methoxyphenyl)-3-(2-methyl-2H-indazol-5-yl)-7-morpholino-3,4-dihydropyrido[2,3-d]pyrimidin-2(1H)-one], with 0.1 to 1 µM; and `COc1ccc(N2C(=O)N(c3ccc4nn(C)cc4c3)Cc3ccc(N4CCCC4)nc32)cc1` [Example 158, 1-(4-methoxyphenyl)-3-(2-methyl-2H-indazol-5-yl)-7-(pyrrolidin-1-yl)-3,4-dihydropyrido[2,3-d]pyrimidin-2(1H)-one], with 0.1 to 1 µM.
In the case of `CCN(CC)c1ccc2c(n1)N(c1ccc(OC)cc1)C(=O)N(c1ccc3nn(C)cc3c1)C2` [Example 159, 7-(diethylamino)-1-(4-methoxyphenyl)-3-(2-methyl-2H-indazol-5-yl)-3,4-dihydropyrido[2,3-d]pyrimidin-2(1H)-one], the IC50 was in the range of 1 to 10 µM.
Consider `COc1ccc(N2C(=O)N(c3ccc4nn(C)cc4c3)Cc3ccc(N(C)C)nc32)cc1` [Example 160, 7-(dimethylamino)-1-(4-methoxyphenyl)-3-(2-methyl-2H-indazol-5-yl)-3,4-dihydropyrido[2,3-d]pyrimidin-2(1H)-one], for which the IC50 lay within 0.1 to 1 µM.
For the compound `[2H]C([2H])([2H])Oc1ccc(N2C(=O)N(c3ccc4nn(C)cc4c3)Cc3ccc(OCCC(F)(F)F)nc32)cc1` [Example 166, 1-(4-methoxy-d3-phenyl)-3-(2-methyl-2H-indazol-5-yl)-7-(3,3,3-trifluoropropoxy)-3,4-dihydropyrido[2,3-d]pyrimidin-2(1H)-one], the IC50 lay in the range of 0.1 to 1 µM.
Turning to `Cn1cc2cc(N3Cc4ccc(OCC(F)F)nc4N(c4ccc5nccn5c4)C3=O)ccc2n1` [Example 171, 7-(2,2-difluoroethoxy)-1-(imidazo[1,2-a]pyridin-6-yl)-3-(2-methyl-2H-indazol-5-yl)-3,4-dihydropyrido[2,3-d]pyrimidin-2(1H)-one], the IC50 is under 0.1 µM.
As to `Cn1cc2cc(N3Cc4ccc(OCC(F)F)nc4N(c4ccc5ncn(C)c5c4)C3=O)ccc2n1` [Example 173, 7-(2,2-difluoroethoxy)-1-(1-methyl-1H-benzo[d]imidazol-6-yl)-3-(2-methyl-2H-indazol-5-yl)-3,4-dihydropyrido[2,3-d]pyrimidin-2(1H)-one], the IC50 was in the range of 0.1 to 1 µM.
With `Cn1cc2cc(N3Cc4ccc(OCC(F)F)nc4N(c4ccc5ncnn5c4)C3=O)ccc2n1` [Example 174, 1-([1,2,4]triazolo[1,5-a]pyridin-6-yl)-7-(2,2-difluoroethoxy)-3-(2-methyl-2H-indazol-5-yl)-3,4-dihydropyrido[2,3-d]pyrimidin-2(1H)-one], the IC50 lay in the range of 0.1 to 1 µM.
Turning to `COc1ccc(N2Cc3cnc(NCC(F)(F)F)nc3N(c3ccc(S(C)(=O)=O)cc3)C2=O)cc1` [Example 189, 3-(4-methoxyphenyl)-1-(4-(methylsulfonyl)phenyl)-7-((2,2,2-trifluoroethyl)amino)-3,4-dihydropyrimido[4,5-d]pyrimidin-2(1H)-one], the IC50 was 0.1 to 1 µM.
For `Cn1cc2cc(N3Cc4cnc(OCC(F)(F)F)nc4N(c4ccc(-c5nc[nH]n5)cc4)C3=O)ccc2n1` [Example 191, 1-(4-(1H-1,2,4-triazol-3-yl)phenyl)-3-(2-methyl-2H-indazol-5-yl)-7-(2,2,2-trifluoroethoxy)-3,4-dihydropyrimido[4,5-d]pyrimidin-2(1H)-one], the IC50 is under 0.1 µM.
In the case of `COc1ccc(N2Cc3cnc(NCC(F)(F)F)nc3N(c3ccc(-c4cn[nH]n4)cc3)C2=O)cc1` [Example 192, 1-(4-(2H-1,2,3-triazol-4-yl)phenyl)-3-(4-methoxyphenyl)-7-((2,2,2-trifluoroethyl)amino)-3,4-dihydropyrimido[4,5-d]pyrimidin-2(1H)-one], the IC50 was 0.1 to 1 µM.

Still in this test, the particulars now being: Table 5b; Additional Examples; read-out: Enzyme Inhibition.
Regarding `COc1ccc(-n2c(=O)c3cnc(SC)nc3n(-c3ccc(OCc4ccccc4)cc3)c2=O)cc1`, the IC50 was over 10 µM.
Still for that read-out and setting: then `COc1ccc(N2Cc3cnc(NCC(F)(F)F)nc3N(c3ccc(C(=O)N(C)C)cc3)C2=O)cc1`, with 0.1 to 1 µM; and `COc1ccc(N2Cc3cnc(NCC(F)(F)F)nc3N(c3ccc(C(C)(C)CO)cc3)C2=O)cc1`, with 0.1 to 1 µM.
In the case of `COc1ccc(N2C(=O)N(c3ccc4nn(C)cc4c3)Cc3cnc(NC4CCCC4)nc32)cc1`, the IC50 was in the range of 0.1 to 1 µM.
The same measure, in the same setting: then `COc1ccc(N2Cc3cnc(NCC(F)(F)F)nc3N(c3ccc(CC(C)O)cc3)C2=O)cc1` (centres unmarked), with 0.1 to 1 µM; and `CCOc1ccc2c(n1)N(c1ccc(OC)cc1)C(=O)N(c1ccc(Cl)cc1)C2`, with over 10 µM; and `COc1ccc(N2Cc3cnc(NCC(F)(F)F)nc3N(c3ccc(C(=O)O)cc3)C2=O)cc1`, with over 10 µM.
Same read-out and setting: then `COc1ccc(-n2c(=O)c3cnc(NCC(F)(F)F)nc3n(-c3ccc(OCc4ccccc4)cc3)c2=O)cc1`, with over 10 µM; and `COc1ccc(N2Cc3cnc(NCC4CC4)nc3N(c3ccccc3)C2=O)cc1`, with over 10 µM; and `COc1ccc(N2Cc3cnc(NCC(F)(F)F)nc3N(c3ccc(-c4ccsc4)cc3)C2=O)cc1`, with over 10 µM.
In the case of `COc1ccc(N2Cc3cnc(NCC(F)(F)F)nc3N(c3cccc(Br)c3)C2=O)cc1`, the IC50 is over 10 µM.
Still for that read-out and setting: then `COc1ccc(N2Cc3cnc(NCC(F)(F)F)nc3N(c3ncc(OC)cn3)C2=O)cc1`, with over 10 µM; and `COc1ccc(-n2c(=O)c3cnc(S(C)(=O)=O)nc3n(-c3ccc(OCc4ccccc4)cc3)c2=O)cc1`, with over 10 µM.
Regarding `COc1ccc(N2Cc3cnc(NCC(F)(F)F)nc3N(c3ccc(Cl)c(C(F)(F)F)c3)C2=O)cc1`, the IC50 was over 10 µM.
Still for that read-out and setting: then `COc1ccc(N2Cc3cnc(NCC(F)(F)F)nc3N(c3ccc(-c4ccccc4)cc3)C2=O)cc1`, with over 10 µM; and `COc1ccc(N2C(=O)N(c3ccc4nn(C)cc4c3)Cc3ccc(Nc4ccccc4)nc32)cc1`, with over 10 µM.
On to `COc1ccc(N2Cc3cnc(NCC(F)(F)F)nc3N(c3ccnnc3)C2=O)cc1`, for which the IC50 is over 10 µM.
Regarding `COc1ccc(N2C(=O)N(c3ccc4nn(C)cc4c3)Cc3ccc(N4CCC4)nc32)cc1`, the IC50 is over 10 µM.
`Cn1cc2cc(N3Cc4ccc(OCC(F)F)nc4NC3=O)ccc2n1`: the IC50 is over 10 µM.
Regarding `COc1ccc(N2Cc3cnc(SC)nc3N(c3ccc(Cl)c(C(F)(F)F)c3)C2=O)cc1`, the IC50 is over 10 µM.
The same measure, in the same setting: then `COc1ccc(N2Cc3cnc(NCC(F)(F)F)nc3N(C3CCNC(=O)C3)C2=O)cc1` (centres unmarked), with over 10 µM.
With `COc1ccc(N2Cc3cnc(SC)nc3N(c3cccc(Br)c3)C2=O)cc1`, the IC50 is over 10 µM.
For `COc1ccc(N2Cc3cnc(NCC(F)(F)F)nc3N(S(C)(=O)=O)C2=O)cc1`, the IC50 was over 10 µM.
Turning to `COc1ccc(N2Cc3cnc(-n4ccnc4)nc3N(c3ccc(O)cc3)C2=O)cc1`, the IC50 is over 10 µM.
